Laboratory results taken from patent US20150299125A1, “PRODRUG BIPYRIDYLAMINOPYRIDINES AS SYK INHIBITORS” (MERCK SHARP & DOHME CORP., priority 2012, published 2015).
Converted amounts (≈) assume the structure as drawn.

Columns and labels:
[1] = Conversion of prodrug to parent in intestine homogenate; assay type: in vitro ADME; conditions: prodrug 1 μM, intestine S9 1 mg protein/mL, 37° C., pH 7.4, 2 h
Method: Conversion of Prodrug to Parent in Intestine Homogenate:
(§1) The likely stability of prodrugs in the intestine can be estimated by incubating a prodrug with intestine homogenate. Incubations of prodrugs (1 μM) with intestine S9 (1 mg protein/mL) were carried out at 37° C. in a phosphate buffer, pH 7.4. Control incubations contained BSA (1.1 mg/mL) instead of intestine S9 microsomes. Aliquots were removed at 0, 5, 15, 30, 60 and 120 min, treated with 4 volumes of acetonitrile containing 2% formic acid and an internal standard, and centrifuged. The supernatants were analyzed by LC-MS/MS for prodrug disappearance and appearance of active drug. The half-life of the prodrug was calculated from the % prodrug remaining at different time points calculated from on the peak area ratio relative to t=0. The amount of active drug generated at the different time points was determined using a standard curve.

[2] = target: T1, recombinant human GST-Syk (Homo sapiens, UniProt P43405); assay: Homogeneous Time-Resolved Fluorescence (HTRF) assay for the recombinant human Syk enzyme; assay type: biochemical; conditions: recombinant human GST-Syk 5 pM, ATP 25 μM, read-out: IC50
T1 construct: purchased Carna Biosciences 08-176
Outline: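 Recombinant GST-hSyk phosphorylates a biotinylated peptide for 45 min at room temperature. Quenched with EDTA buffer containing 2 nM Eu-anti-phosphotyrosine antibody and 70 nM SA-APC; HTRF read after 30 min.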

[3] = Conversion of prodrug to parent in liver homogenate; assay type: in vitro ADME; conditions: prodrug 1 μM, liver S9 1 mg protein/mL, 37° C., pH 7.4, 2 h
Method: Conversion of Prodrug to Parent in Liver Homogenate:
as §1, with “liver” for “intestine”

[4] = Solubility in biorelevant fasted state simulated intestinal fluid (FaSSIF); assay type: physicochemical; conditions: 25 °C, fassif, kinetic from dmso stock, Solubility
Outline: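 Compound from 10 mM DMSO stock diluted into FaSSIF (maximum solubility approximately 200 μM), equilibrated, then filtered by centrifugation through a 0.45 μm polypropylene membrane. Filtrate and a 100 μM standard analysed by HPLC/DAD; solubility = (sample peak area/standard peak area) × standard concentration.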

Blood stability assay = assay type: in vitro ADME; conditions: whole blood; human blood, 37° C.
Method: The likely stability of prodrugs in the blood can be estimated by incubating a prodrug with blood. A prodrug stock solution was prepared at 10 mM in DMSO and working solutions (100 μM) containing the prodrug were prepared by diluting a suitable amount of the stock solution with acetonitrile/water (50/50). 5 μL of the working solution were added to 495 μL of pre-warmed blood (at 37° C.). After vortexing and mixing, 50 μL of the spiked blood sample were taken for the 0 time point and transferred to another vial containing 200 μL of quenching solution (labetalol, alprazolam and diclofenac in 100% acetonitrile) ensuring that the vial is lidded to prevent evaporation and kept on ice. While keeping the spiked blood sample at 37° C. at the following timepoints (0.25, 0.5, 1, 2 and 3 h) 5 additional aliquots (50 μL) were sampled and mixed with the quenching solution. At the end of the experiment the quenched samples were vortexed for 2 minutes and centrifuged for 10 minutes at 4000 rpm. The supernatant (100 μL) was then transferred and collected into a new 96-well plate and injected into the LC-MS/MS for analysis. For each test compound, the area ratios at each time point to the 0 hour area ratio were compared and converted to a percentage remaining. The percentage remaining were then plotted against time (h) and half life generated using the following equation t½=0.693/kel. Where kel is the elimination rate constant which is determined from the concentration versus time curve by linear regression at the terminal phase of the semi-logarithmic plot.

[5] = Conversion of prodrug to parent in in vitro biorelevant gastrointestinal tract media; assay type: in vitro ADME; conditions: 37° C.; for Conversion in SGF, time: simulated gastric fluid
Method: Conversion of Prodrug to Parent in In Vitro Biorelevant Gastrointestinal Tract Media: The likely stability of prodrugs in the gastrointestinal tract can be estimated by incubating a prodrug in simulated gastric and intestinal fluids; compounds were measured for stability in simulated gastric fluid (SGF), fasted state simulated intestinal fluid (FaSSIF), and fasted state simulated intestinal fluid plus pancreatin (FaSSIF+pancreatin). Prodrug stock solutions were made by diluting 2 mg of compound in 200 μL DMSO. A 10 mg/mL Pancreatin in FaSSIF stock solution was made by dissolving 10 mg Pancreatin in 1 mL FaSSIF. Samples were prepared by diluting 10 μL of compound stock solution into 990 μL of biorelevant media (990 μL SGF, 990 μL FaSSIF, or 940 μL FaSSIF plus 50 μL Pancreatin stock) in a 2 mL HPLC vial and vortexing the mixture for a few seconds. The samples were incubated at 37° C. and aliquots were removed for up to 24 hours and injected directly on an HPLC to determine the conversion of prodrug to active drug. In the case of compound precipitation upon sample preparation, an individual sample was prepared for each desired time point and the entire sample was diluted with a known volume of acetonitrile/water (50/50) to ensure compound dissolution before HPLC analysis.

| Structure (SMILES) | Prodrug concentration at 2 h [1] | IC50 [2] | Prodrug concentration at 2 h [3] | solubility [4] | half-life at 1 μM (Blood stability assay) | Conversion in FaSSIF + Pancreatin, time ([5]; 3 h) | Conversion in FaSSIF, time ([5]; 3 h) | Conversion in SGF, time ([5]; 5 h) | Conversion in FaSSIF, time ([5]; 5 h) |
| --- | --- | --- | --- | --- | --- | --- | --- | --- | --- |
| COCCN(C)C(=O)OC(C)OC(=O)[C@H]1CC[C@H]([C@@](C)(O)c2ccc(-c3cc(C)cc(Nc4cc(C(F)F)ccn4)n3)cn2)CC1 (mixture of isomers) [Example 4-1, 1-{[(2-methoxyethyl)(methyl)carbamoyl]oxy}ethyl trans-4-[(1R)-1-(6-{[4-(difluoromethyl)pyridin-2-yl]amino}-4-methyl-2,3′-bipyridin-6′-yl)-1-hydroxyethyl]cyclohexanecarboxylate] | 0.539 µM | 20.7 nM | 0 µM |  |  |  |  |  |  |
| Cc1cc(Nc2cc(C(F)F)ccn2)nc(-c2ccc([C@](C)(O)[C@H]3CC[C@H](C(=O)OCC[S@@+](C)[O-])CC3)nc2)c1 (single isomer, unassigned) [Example 7-1a] | 0.385 µM | 4.2 nM | 0 µM | 56 µM (≈ 32.1 µg/mL) |  |  |  |  |  |
| Cc1cc(Nc2cc(C(F)F)ccn2)nc(-c2ccc([C@](C)(O)[C@H]3CC[C@H](C(=O)OCCS(C)(=O)=O)CC3)nc2)c1 [Example 1-8, 2-(methylsulfonyl)ethyl trans-4-[(1R)-1-(6-{[4-(difluoromethyl)pyridin-2-yl]amino}-4-methyl-2,3′-bipyridin-6′-yl)-1-hydroxyethyl] cyclohexanecarboxylate] |  | 4 nM |  |  | 22 min |  |  |  |  |
| CCOCCOCCOC(=O)OC(C)OC(=O)[C@H]1CC[C@H]([C@@](C)(O)c2ccc(-c3cc(C)cc(Nc4cc(C(F)F)ccn4)n3)cn2)CC1 (stereo partly drawn) [Example 2-14, 1-methyl-3-oxo-2,4,7,10-tetraoxadodec-1-yl trans-4-[(1R)-1-(6-{[4-(difluoromethyl)pyridin-2-yl]amino}-4-methyl-2,3′-bipyridin-6′-yl)-1-hydroxyethyl]cyclo hexanecarboxylate] |  | 30.4 nM |  |  | 199 min |  |  |  |  |
| Cc1cc(Nc2cc(C(F)F)ccn2)nc(-c2ccc([C@](C)(O)[C@H]3CC[C@H](C(=O)OCOC(=O)C4CCNCC4)CC3)nc2)c1 [Example 3-1] |  | 27 nM |  | 147 µM (≈ 91.7 µg/mL) |  | 100%, 3 h | 100%, 3 h | 0%, 5 h |  |
| Cc1cc(Nc2cc(C(F)F)ccn2)nc(-c2ccc([C@](C)(O)[C@H]3CC[C@H](C(=O)OCOC(=O)CC(C)(C)O)CC3)nc2)c1 [Example 3-4, [(3-hydroxy-3-methylbutanoyl)oxy] methyl trans-4-[(1R)-1-(6-{[4-(difluoromethyl)pyridin-2-yl]amino}-4-methyl-2,3′-bipyridin-6′-yl)-1-hydroxyethyl]cyclohexane carboxylate] |  | 1.8 nM |  | 59 µM (≈ 36.1 µg/mL) | 14 min |  |  |  |  |
| COCCN(C)C(=O)OCOC(=O)[C@H]1CC[C@H]([C@@](C)(O)c2ccc(-c3cc(C)cc(Nc4cc(C(F)F)ccn4)n3)cn2)CC1 [Example 4-2, {[(2-methoxyethyl)(methyl)carbamoyl]oxy}methyl trans-4-[(1R)-1-(6-{[4-(difluoromethyl)pyridin-2-yl]amino}-4-methyl-2,3′-bipyridin-6′-yl)-1-hydroxyethyl]cyclohexanecarboxylate] |  | 9.1 nM |  |  | 16 min |  |  |  |  |
| Cc1cc(Nc2cc(C(F)F)ccn2)nc(-c2ccc([C@](C)(O)[C@H]3CC[C@H](C(=O)OCOC(=O)OCCCS(C)(=O)=O)CC3)nc2)c1 [Example 7-2, ({[3-(Methylsulfonyl)propoxy]carbonyl}oxy)methyl trans-4-[(1R)-1-(6-{[4-(difluoromethyl)pyridin-2-yl]amino}-4-methyl-2,3′-bipyridin-6′-yl)-1-hydroxyethyl]cyclohexanecarboxylate] | 0.092 µM | 7.5 nM | 0.12 µM |  |  |  |  |  |  |

These reach a lower IC50 [2]. Values come first.

| Prodrug concentration at 2 h [1] | IC50 [2] | Prodrug concentration at 2 h [3] | solubility [4] | half-life at 1 μM (Blood stability assay) | Conversion in FaSSIF + Pancreatin, time ([5]; 3 h) | Conversion in FaSSIF, time ([5]; 3 h) | Conversion in SGF, time ([5]; 5 h) | Conversion in FaSSIF, time ([5]; 5 h) | Structure (SMILES) |
| --- | --- | --- | --- | --- | --- | --- | --- | --- | --- |
| 0.371 µM | < 0.5 nM | 0 µM |  |  |  |  |  |  | CCOCCOCCOC(=O)OC(OC(=O)[C@H]1CC[C@H]([C@@](C)(O)c2ccc(-c3cc(C)cc(Nc4cc(C(F)F)ccn4)n3)cn2)CC1)C(C)C (stereo partly drawn) [Example 2-17, 1-(1-methylethyl)-3-oxo-2,4,7,10-tetraoxadodec-1-yl trans-4-[(1R)-1-(6-{[4-(difluoromethyl)pyridin-2-yl]amino}-4-methyl-2,3′-bipyridin-6′-yl)-1-hydroxyethyl]cyclo hexanecarboxylate] |
|  | 1.2 nM |  | 41 µM (≈ 27.6 µg/mL) | 29 min |  |  |  |  | COCCOCCOCC(=O)OCOC(=O)[C@H]1CC[C@H]([C@@](C)(O)c2ccc(-c3cc(C)cc(Nc4cc(C(F)F)ccn4)n3)cn2)CC1 [Example 3-29, 3-oxo-2,5,8,11-tetraoxadodec-1-yl trans-4-[(1R)-1-(6-{[4-(difluoromethyl)pyridin-2-yl]amino}-4-methyl-2,3′-bipyridin-6′-yl)-1-hydroxyethyl]cyclohexane carboxylate] |
| 0 µM | < 0.5 nM | 0 µM | 154 µM (≈ 125 µg/mL) |  |  |  |  |  | Cc1cc(Nc2cc(C(F)F)ccn2)nc(-c2ccc([C@](C)(O)[C@H]3CC[C@H](C(=O)OCOC(=O)OCCOCCOCCOCCOP(=O)(O)O)CC3)nc2)c1 [Example 8-1, 17,17-Dihydroxy-17-oxido-3-oxo-2,4,7,10,13,16-hexaoxa-17λ^5-phosphaheptadec-1-yl trans-4-[(1R)-1-(6-{[4-(difluoromethyl)pyridin-2-yl]amino}-4-methyl-2,3′-bipyridin-6′-yl)-1-hydroxyethyl]cyclohexanecarboxylate] |
| 0.249 µM | < 0.5 nM | 0.434 µM | 161 µM (≈ 97.7 µg/mL) |  | 20%, 3 h |  | 0%, 5 h | 0%, 5 h | Cc1cc(Nc2cc(C(F)F)ccn2)nc(-c2ccc([C@](C)(O)[C@H]3CC[C@H](C(=O)OCCOP(=O)(O)O)CC3)nc2)c1 [Example 8-2, 2-(phosphonooxy)ethyl trans-4-[(1R)-1-(6-{[4-(difluoromethyl)pyridin-2-yl]amino}-4-methyl-2,3′-bipyridin-6′-yl)-1-hydroxyethyl]cyclohexane-carboxylate] |
